Reference: US9388147B2 (Receptos, Inc., priority 2009, dated 2016)

What follows are compounds tested against S1P1/EDG1 (Homo sapiens, UniProt P21453) (assay: S1P1 CRE-bla CHOK1 reporter assay, inhibition of Forskolin induced cAMP). Settings: agonist activity range, S1P1 CRE-bla CHOK1, 2 μM Forskolin; read-out: S1P1 ACTIVITY.
Format: cell-based
Method: Generation of S1P1-Mediated Inhibition of cAMP Reporter Assay
A mammalian expression plasmid containing S1P1/EDG1 cloned into pcDNA3.1 was purchased from Missouri S&T cDNA Resource Centre. […] S1P1/pcDNA3.1 was transfected into the CRE-bla CHO K1 (Invitrogen) cell line, and stable single cell clones were selected using standard techniques.
S1P1 CRE-Bla CHOK1 Reporter Assay—Characterization of S1P1 Agonists
Cells were seeded into 384-well black wall/clear bottom plates at 10^4 cells/well/19.5 μl assay media (DMEM-phenol free, 0.5% charcoal/dextran stripped serum, 2 mM glutamine, 0.1 mM NEAA, 1 mM Na-Pyruvate, 25 mM Hepes) and incubated for 18 hrs at 37° C. in 5% CO2. Dose response curves (10-point) were generated in 10 mM Hepes, 0.1% Pluronic F127, in the presence of Forskolin. Cells were treated with 0.5 μl compound in the presence of 2 μM Forskolin for 4 hrs at 37° C. The FRET-based β-lactamase fluorescent substrate (LiveBLAzer™-FRET B/G Loading Kit CC4-AM; Invitrogen) was prepared according to manufacturer's directions, and incubated with cells for 2 hrs at room temperature. […] Data was analyzed by non-linear regression to determine the EC50 for inhibition of Forskolin induced cAMP.

S1P1/EDG1, sequence (P21453 whole entry): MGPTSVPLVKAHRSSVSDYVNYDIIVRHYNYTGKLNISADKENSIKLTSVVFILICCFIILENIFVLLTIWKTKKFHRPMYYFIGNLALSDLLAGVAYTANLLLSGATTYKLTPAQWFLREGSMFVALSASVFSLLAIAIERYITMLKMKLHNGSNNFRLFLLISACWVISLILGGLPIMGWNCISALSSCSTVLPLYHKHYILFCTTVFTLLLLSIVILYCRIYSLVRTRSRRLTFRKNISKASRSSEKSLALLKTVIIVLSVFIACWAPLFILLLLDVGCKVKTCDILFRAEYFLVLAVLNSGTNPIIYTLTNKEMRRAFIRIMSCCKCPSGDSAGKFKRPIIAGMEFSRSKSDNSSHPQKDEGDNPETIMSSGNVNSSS

Question: How did the EC50 turn out when `CC(C)Oc1ccc(-c2nc(-c3cccc4c3CC[C@@H]4NS(=O)(=O)CC(=O)N3CCOCC3)no2)cc1C#N` [Compound 191] was run?
Answer: 50 to 500 pM

Question: `CC(C)Oc1ccc(-c2nc(-c3cccc4c3CC[C@H]4NC(=O)N3CCC(C(=O)O)CC3)no2)cc1C#N` [Compound 238] was tested. Which EC50 did it give?
Answer: 50 to 500 pM

Question: `CC(C)Oc1ccc(-c2nc(-c3cccc4c3CC[C@@H]4NC(=N)N)no2)cc1C#N` [Compound 250] was tested. Which EC50 did it give?
Answer: 50 to 500 pM

Question: How did the EC50 turn out when `CC(C)CS(=O)(=O)N[C@@H]1CCc2c(-c3noc(-c4ccc(OC(C)C)c(C#N)c4)n3)cccc21` [Compound 76] was run?
Answer: 500 to 5000 pM

Question: `CC(=O)OCCNC1CCc2c(-c3noc(-c4ccc(OC(C)C)c(C#N)c4)n3)cccc21` (racemic) [Compound 37] was tested. Which EC50 did it give?
Answer: 50 to 500 pM

Question: For `CC(C)Oc1ccc(-c2nc(-c3cccc4c3CC[C@@H]4N[C@H](C)CO)no2)cc1C#N` [Compound 55, 5-(3-((S)-1-(((R)-1-hydroxypropan-2-yl)amino)-2,3-dihydro-1H-inden-4-yl)-1,2,4-oxadiazol-5-yl)-2-isopropoxybenzonitrile], which EC50 is on record?
Answer: 50 to 500 pM

Question: With `COC(=O)CC1CCN(C(=O)N[C@@H]2CCc3c(-c4noc(-c5ccc(OC(C)C)c(C#N)c5)n4)cccc32)CC1` [Compound 225] as the compound, how does the EC50 read?
Answer: 500 to 5000 pM

Question: How did the EC50 turn out when `CC(C)Oc1ccc(-c2nc(-c3cccc4c3CC[C@H]4NCCF)no2)cc1C#N` [Compound 124, (R)-5-(3-(1-((2-fluoroethyl)amino)-2,3-dihydro-1H-inden-4-yl)-1,2,4-oxadiazol-5-yl)-2-isopropoxybenzonitrile] was run?
Answer: 50 to 500 pM

Question: How did the EC50 turn out when `CC(C)Oc1ccc(-c2nc(-c3cccc4c3CC[C@H]4NCC(N)=O)no2)cc1C#N` [Compound 51] was run?
Answer: < 50 pM

Question: For `CC(C)Oc1ccc(-c2nc(-c3cccc4c3CC[C@@H]4N(C)C(=O)CO)no2)cc1C#N` [Compound 110], which EC50 is on record?
Answer: 50 to 500 pM

Question: `CC(C)Oc1ccc(-c2nc(-c3cccc4c3CC[C@H]4NS(=O)(=O)CC(=O)N(C)C)no2)cc1C#N` [Compound 194, (R)-2-(N-(4-(5-(3-cyano-4-isopropoxyphenyl)-1,2,4-oxadiazol-3-yl)-2,3-dihydro-1H-inden-1-yl)sulfamoyl)-N,N-dimethylacetamide] was tested. Which EC50 did it give?
Answer: < 50 pM

Question: Which EC50 does the source give for `CC(C)Oc1ccc(-c2nc(-c3cccc4c3CC[C@@H]4N3CC(C(=O)N(C)C)C3)no2)cc1C#N` [Compound 205] here?
Answer: 50 to 500 pM

Question: For `N#Cc1cc(-c2nc(-c3cccc4c3CCC4NCCO)no2)ccc1OC[C@@H](O)CO` (mixture of isomers) [Compound 104], which EC50 is on record?
Answer: > 5000 pM

Question: Which EC50 does the source give for `CC(C)Oc1ccc(-c2nc(-c3cccc4c3CC[C@@H]4NS(=O)(=O)CCN3CCC3)no2)cc1C#N` [Compound 169] here?
Answer: 500 to 5000 pM

Question: Which EC50 does the source give for `N#Cc1cc(-c2nc(-c3cccc4c3CC[C@H]4N)no2)ccc1OCC1CC1` [Compound 100, (R)-5-(3-(1-amino-2,3-dihydro-1H-inden-4-yl)-1,2,4-oxadiazol-5-yl)-2-(cyclopropylmethoxy)benzonitrile] here?
Answer: 500 to 5000 pM

Question: With `CCOc1ccc(-c2nc(-c3cccc4c3CC[C@@H]4O)no2)cc1C(F)(F)F` [Compound 10] as the compound, how does the EC50 read?
Answer: 50 to 500 pM

Question: Which EC50 does the source give for `CC(C)Oc1ccc(-c2nc(-c3cccc4c3CC[C@@H]4NC(=O)N3CC[C@@H](O)C3)no2)cc1C#N` [Compound 232] here?
Answer: 50 to 500 pM

Question: With `CC(C)Oc1ccc(-c2nc(-c3cccc4c3CCC4NCCN)no2)cc1C#N` (racemic) [Compound 29] as the compound, how does the EC50 read?
Answer: 50 to 500 pM

Question: Which EC50 does the source give for `CC(C)Oc1ccc(-c2nc(-c3cccc4c3CC[C@@H]4NC(=O)N3CC[C@H](O)C3)no2)cc1C#N` [Compound 233] here?
Answer: 50 to 500 pM

Question: How did the EC50 turn out when `CC(C)Oc1ccc(-c2nc(-c3cccc4c3CC[C@@H]4NS(=O)(=O)CC(=O)O)no2)cc1C#N` [Compound 71, (S)-2-(N-(4-(5-(3-cyano-4-isopropoxyphenyl)-1,2,4-oxadiazol-3-yl)-2,3-dihydro-1H-inden-1-yl)sulfamoyl)acetic acid] was run?
Answer: 50 to 500 pM

Question: For `CC(C)Oc1ccc(-c2nc(-c3cccc4c3CC[C@H]4NS(=O)(=O)CCN3CCCCC3)no2)cc1C#N` [Compound 175], which EC50 is on record?
Answer: 500 to 5000 pM

Question: How did the EC50 turn out when `CC(C)Oc1ccc(-c2nc(-c3cccc4c3CC[C@H]4NCC(=O)N3CCN(C)CC3)no2)cc1C#N` [Compound 132] was run?
Answer: 500 to 5000 pM
